Results taken from US10071976B2, “Small molecule fatty acid synthase inhibitors” (Sanford Burnham Prebys Medical Discovery Institute, priority 2014, dated 2018).

Experiments:
FASN thioesterase = target: T1, FASN thioesterase (Homo sapiens, UniProt P49327); experiment: FP-PEG-TAMRA labeling of recombinant FASN thioesterase; assay type: binding; details: recombinant enzyme, 20 μM final, pH 7.8
T1 construct: label the active site of the FASN thioesterase and ACOT4
Protocol: (§1) Additionally, studies were performed to test the selectivity of Compounds 1, 16, 22, and 37 for the FASN thioesterase over its most closely related human homolog, the enzyme called ACOT4 (see FIG. 3). Both proteins were mixed and pretreated with the compound (20 μM final, pH 7.8) before addition of the fluorescent activity probe FP-PEG-TAMRA. Respective fluorescence of the bands was detected on a Hitachi flatbed scanner and a greyscale version used for quantitative analysis using ImageJ. Recombinant forms of each enzyme were incubated with compound 16, compound 1, compound 37, and compound 22. FP-TAMRA was included in this mixture to label the active site of the FASN thioesterase and ACOT4. […] These findings further attest to the high degree of selectivity of compounds 1, 16, 37 and 22 for the FASN thioesterase.

ACOT4 = target: T2, ACOT4 (Homo sapiens, UniProt Q8N9L9); experiment: FP-PEG-TAMRA labeling of recombinant ACOT4; assay type: binding; details: recombinant enzyme, 20 μM final, pH 7.8
T2 sequence (Q8N9L9 1-421): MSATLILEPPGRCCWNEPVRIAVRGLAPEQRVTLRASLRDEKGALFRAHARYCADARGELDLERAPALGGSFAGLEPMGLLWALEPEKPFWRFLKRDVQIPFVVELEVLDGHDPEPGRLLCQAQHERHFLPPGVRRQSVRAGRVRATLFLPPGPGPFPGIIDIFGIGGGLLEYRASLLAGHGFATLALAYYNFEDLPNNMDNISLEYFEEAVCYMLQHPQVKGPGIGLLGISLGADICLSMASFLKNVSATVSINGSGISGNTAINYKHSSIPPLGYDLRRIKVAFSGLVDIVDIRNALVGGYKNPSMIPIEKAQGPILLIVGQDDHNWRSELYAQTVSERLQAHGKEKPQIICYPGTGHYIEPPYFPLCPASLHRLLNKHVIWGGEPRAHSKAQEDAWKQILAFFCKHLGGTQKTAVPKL
Protocol: as §1

[1] = Plasma protein binding, human; assay type: in vitro ADME
Text: (§2) Plasma protein binding was a measure of a drug's efficiency to bind to the proteins within blood plasma. The less bound a drug is, the more efficiently it can traverse cell membranes or diffuse. […] In contrast, drugs that remain largely unbound in plasma are generally available for distribution to other organs and tissues.

[2] = Plasma protein binding, mouse; assay type: in vitro ADME; details: read-out: Plasma Protein Binding (% Bound) (converted)
Text: as §2

[3] = Hepatic microsome stability, mouse; assay type: in vitro ADME
Text: The microsomal stability assay is commonly used to rank compounds according to their metabolic stability. This assay addresses the pharmacologic question of how long the parent compound will remain circulating in plasma within the body.

T1 sequence (P49327 2207-2511 limits assumed): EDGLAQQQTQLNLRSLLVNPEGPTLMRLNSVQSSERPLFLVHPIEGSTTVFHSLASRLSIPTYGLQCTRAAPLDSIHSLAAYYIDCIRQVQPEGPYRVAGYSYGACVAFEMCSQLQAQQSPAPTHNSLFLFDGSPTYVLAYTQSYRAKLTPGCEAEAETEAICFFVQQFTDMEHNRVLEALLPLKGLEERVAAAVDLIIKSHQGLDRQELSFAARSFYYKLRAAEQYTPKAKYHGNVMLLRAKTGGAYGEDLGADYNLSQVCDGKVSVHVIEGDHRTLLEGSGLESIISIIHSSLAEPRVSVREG

CCC(CC)C(=O)Nc1nc(-c2ccc(S(=O)(=O)N3CCOCC3)cc2)cs1 [Compound 16, 2-Ethyl-N-(4-(4-(morpholinosulfonyl)phenyl)thiazol-2-yl)butanamide]
binding of FP-TAMRA to the active site of the FASN thioesterase (FASN thioesterase): blocked the binding of FP-TAMRA | activity labeling of ACOT4 (ACOT4): without effect | fraction unbound at 1 μM ([1]; plasma, Human, 1 μM, read-out: Plasma Protein Binding (% Bound) (converted)): 0.034 | fraction unbound at 10 μM ([1]; plasma, Human, 10 μM, read-out: Plasma Protein Binding (% Bound) (converted)): 0.0253 | plasma protein binding ([1]; species not given): highly plasma protein bound | fraction unbound at 1 μM ([2]; 1 μM): 0.0381 | fraction unbound at 10 μM ([2]; 10 μM): 0.0337 | Hepatic Microsome Stability (% Remaining at 1 hr) ([3]; Mouse, 1 hr): 6.37% | liver microsome stability ([3]; mouse liver microsomes): poor stability
